The text below walks through data of patent US20220347141A1, “METHODS OF TREATING PHOSPHATE CONCENTRATION DISORDERS WITH L-BAIBA” (YALE UNIVERSITY, priority 2019, published 2022).

Assay [1] has as its target T1, FGF23 (Homo sapiens, UniProt Q9GZV9).
T1 construct: individuals treated with burosumab (Crysvita), an FGF23-neutralizing antibody therapy for XLH; endogenous in cells; host or cells: patients with XLH (in vivo, circulating hormone)
T1 sequence (Q9GZV9 25-251): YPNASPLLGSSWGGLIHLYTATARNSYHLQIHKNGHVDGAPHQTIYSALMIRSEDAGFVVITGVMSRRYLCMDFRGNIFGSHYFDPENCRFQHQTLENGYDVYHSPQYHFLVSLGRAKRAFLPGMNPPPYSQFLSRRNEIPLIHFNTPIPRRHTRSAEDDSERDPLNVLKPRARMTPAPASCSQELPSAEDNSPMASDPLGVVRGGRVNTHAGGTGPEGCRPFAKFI
To be noted: individuals with XLH treated with burosumab; cited from earlier work.

The test system of assay [2] is WT mice. Put plainly: L-BAIBA or D-BAIBA in the drinking water of WT mice: urine Pi excretion, plasma Pi, plasma intact FGF23. The class given is in vivo, mouse. As to the method:
FIG. 5A: 5 mo. old males treated with CO, L-BAIBA, or D-BAIBA in the drinking water for 5 days. FIGS. 5B-5D: same 5 mo. old males from FIG. 5A treated for 30 days, following sacrifice in addition to urine Pi/urine creatinine, plasma Pi and plasma intact FGF23 were determined. Data are mean±SEM, ****p<0.00002, ***p=0.0002, **p=0.002, *p=0.03 vs. CO.
Mouse lines are back-crossed to C57BL6 mice (Charles river laboratories strain ID 027) to reduce variation caused by genetic background and fed a standard chow containing 0.3% bio-available Pi (Teklad 2018S) or for selective experiments a high Pi (HPD diet, 1.2% bio-available Pi, Teklad TD85349). L-BAIBA can be supplied in the drinking water (see Chemical Reagents below). PCR-based genotyping can be done on each experimental animal using gDNA prepared by alkaline lysis from a tail- or ear-snip to verify presence of the Pit1 null, Pit2 null, HA-hPIT1^tg/+ and HSA-Cre^tg/+ alleles.
All blood and urine studies for calcium, creatinine, phosphorus, iPTH, and c/iFGF23 can be performed using commercially available Stanbio kits, Immutopics and R&D ELISAs, or LC-MS/MS-based methods. […] Results can be analyzed using a Perkin Elmer 1420 Multilabel Counter Victor 3 currently located at the Anlyan Center, S-120 or using an Applied Biosystems API6500 QTrap interfaced to a Shimadzu HPLC (LC-20AD, SIL-20AC, CTO-20A) currently located in Anlyan Center, S-260. […]

For assay [3], the system named is FGF23 synthesis in bone. Put plainly: Stimulation of FGF23 synthesis in bone. The settings on record: resulting in unsuppressed FGF23 levels. It counts as in vivo.
The target of assay [4] is T2, MRGPRD (Mus musculus, UniProt Q91ZB8).
T2 construct: young osteocytes which express high levels of MRGPRD; endogenous in cells; host or cells: osteocytes of young mice (in vivo, hind-limb suspension)
T2 sequence (Q91ZB8 1-321): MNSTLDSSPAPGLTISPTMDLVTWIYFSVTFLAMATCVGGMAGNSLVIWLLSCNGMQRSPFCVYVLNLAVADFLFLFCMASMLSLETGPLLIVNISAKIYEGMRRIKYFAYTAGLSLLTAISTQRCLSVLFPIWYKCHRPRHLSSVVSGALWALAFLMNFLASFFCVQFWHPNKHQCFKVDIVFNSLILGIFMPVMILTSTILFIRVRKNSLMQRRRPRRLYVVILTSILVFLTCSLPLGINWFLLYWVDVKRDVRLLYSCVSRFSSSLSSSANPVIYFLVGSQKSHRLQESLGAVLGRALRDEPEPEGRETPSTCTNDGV
The settings on record: young mice, cited from earlier work.

“Also recorded” adds a separate entry of the source.

As to “burosumab: an FGF23-neutralizing antibody therapy for XLH”, the “fatigue and endurance reported by treated individuals” value in assay [1] is “improved fatigue and endurance”.

As for `C[C@@H](CN)C(=O)O` [L-BAIBA, (S)-3-amino-2-methylpropanoic acid], the “urine Pi excretion (urine Pi/urine creatinine)” value in assay [2] (5 mo. old male WT mice, in the drinking water for 5 or 30 days, vs. CO) is recorded as “increased renal Pi-excretion; also recorded: increases urine Pi excretion; also recorded: caused a renal Pi leak”. Besides, the “FGF23 levels (plasma intact FGF23)” value in assay [2] (5 month old WT mice treated with L-BAIBA) is “inappropriately normal”. Further, the “FGF23 synthesis in bone” value in assay [3] was “able to stimulate FGF23 synthesis in bone”. Moreover, the osteocyte survival result in assay [4] (activation of MRGPRD, maintaining mitochondrial integrity) is given as “promotes osteocyte survival”. Further, the “bone loss caused by hind-limb suspension” value in assay [4] is reported as “prevents bone loss”.
